Test results as given in the NIST ThermoML archive (doi:10.1021/je020125e).
Numbers after ± are expanded uncertainties.

Settings: 101.33 kPa, Liquid, Hot wire method

CC(C)C(C)(C)C [2,2,3-trimethylbutane]
Settings | thermal conductivity [W/m/K] | thermal diffusivity [m2/s]
257.27 K | 0.1051 ± 0.00073 | –
257.53 K | 0.105 ± 0.00073 | –
257.81 K | 0.1049 ± 0.00073 | –
258.21 K | – | 7.28e-08 ± 1.4e-09
258.88 K | – | 7.27e-08 ± 1.4e-09
259.58 K | – | 7.26e-08 ± 1.4e-09
277.62 K | 0.1001 ± 0.0007 | –
277.9 K | 0.0999 ± 0.0007 | –
278.17 K | 0.0998 ± 0.0007 | –
278.57 K | – | 6.81e-08 ± 1.3e-09
279.26 K | – | 6.79e-08 ± 1.3e-09
279.93 K | – | 6.77e-08 ± 1.3e-09
296.29 K | 0.09516 ± 0.00067 | –
296.58 K | 0.09508 ± 0.00067 | –
296.87 K | 0.09497 ± 0.00067 | –
297.2 K | – | 6.29e-08 ± 1.2e-09
297.91 K | – | 6.32e-08 ± 1.2e-09
298.61 K | – | 6.3e-08 ± 1.2e-09
313.91 K | 0.09108 ± 0.00065 | –
314.21 K | 0.09098 ± 0.00065 | –
314.52 K | 0.09085 ± 0.00065 | –
314.85 K | – | 6e-08 ± 1.1e-09
315.57 K | – | 6e-08 ± 1.1e-09
316.3 K | – | 5.98e-08 ± 1.1e-09
331.18 K | 0.08718 ± 0.00062 | –
331.48 K | 0.08706 ± 0.00062 | –
331.79 K | 0.0869 ± 0.00062 | –
332.15 K | – | 5.72e-08 ± 1.1e-09
332.87 K | – | 5.7e-08 ± 1.1e-09
333.59 K | – | 5.66e-08 ± 1.1e-09

CC(C)CC(C)(C)C [2,2,4-trimethylpentane]
Settings | thermal conductivity [W/m/K] | thermal diffusivity [m2/s]
259.11 K | 0.1042 ± 0.00073 | –
259.32 K | 0.1041 ± 0.00073 | –
259.52 K | 0.104 ± 0.00073 | –
259.89 K | – | 7.3e-08 ± 1.4e-09
260.43 K | – | 7.32e-08 ± 1.4e-09
260.92 K | – | 7.33e-08 ± 1.4e-09
277.52 K | 0.09971 ± 0.0007 | –
277.74 K | 0.09966 ± 0.0007 | –
277.93 K | 0.09958 ± 0.0007 | –
278.29 K | – | 6.86e-08 ± 1.3e-09
278.84 K | – | 6.88e-08 ± 1.3e-09
279.31 K | – | 6.87e-08 ± 1.3e-09
295.67 K | 0.09516 ± 0.00067 | –
295.9 K | 0.09509 ± 0.00067 | –
296.1 K | 0.09502 ± 0.00067 | –
296.41 K | – | 6.37e-08 ± 1.2e-09
296.96 K | – | 6.41e-08 ± 1.2e-09
297.45 K | – | 6.42e-08 ± 1.2e-09
313.79 K | 0.09108 ± 0.00065 | –
314.02 K | 0.091 ± 0.00065 | –
314.22 K | 0.09093 ± 0.00065 | –
314.56 K | – | 6.07e-08 ± 1.1e-09
315.1 K | – | 6.07e-08 ± 1.1e-09
315.57 K | – | 6.07e-08 ± 1.1e-09
327.69 K | 0.08786 ± 0.00063 | –
327.93 K | 0.0878 ± 0.00063 | –
328.14 K | 0.08771 ± 0.00063 | –
328.47 K | – | 5.82e-08 ± 1.1e-09
329.04 K | – | 5.83e-08 ± 1.1e-09
329.52 K | – | 5.81e-08 ± 1.1e-09

CCC(C)(C)C [2,2-dimethylbutane]
Settings | thermal conductivity [W/m/K] | thermal diffusivity [m2/s]
257.48 K | 0.1055 ± 0.001 | –
257.84 K | 0.1053 ± 0.001 | –
258.3 K | 0.1051 ± 0.001 | –
258.74 K | – | 7.54e-08 ± 1.5e-09
259.62 K | – | 7.49e-08 ± 1.5e-09
260.73 K | – | 7.46e-08 ± 1.5e-09
271.49 K | 0.1011 ± 0.001 | –
271.84 K | 0.101 ± 0.001 | –
272.32 K | 0.1008 ± 0.001 | –
272.79 K | – | 7.16e-08 ± 1.4e-09
273.65 K | – | 7.14e-08 ± 1.4e-09
274.78 K | – | 7.08e-08 ± 1.4e-09
279.86 K | 0.09854 ± 0.00098 | –
280.24 K | 0.09842 ± 0.00098 | –
280.73 K | 0.09822 ± 0.00098 | –
281.17 K | – | 6.94e-08 ± 1.4e-09
282.06 K | – | 6.92e-08 ± 1.4e-09
283.23 K | – | 6.85e-08 ± 1.4e-09
297.98 K | 0.09321 ± 0.00093 | –
298.42 K | 0.09307 ± 0.00093 | –
298.91 K | 0.09289 ± 0.00093 | –
299.31 K | – | 6.48e-08 ± 1.3e-09
300.31 K | – | 6.46e-08 ± 1.3e-09
301.44 K | – | 6.41e-08 ± 1.3e-09
319.35 K | 0.08745 ± 0.00088 | –
319.75 K | 0.08729 ± 0.00088 | –
320.28 K | 0.08709 ± 0.00088 | –
320.72 K | – | 6.03e-08 ± 1.2e-09
321.62 K | – | 5.99e-08 ± 1.2e-09
322.83 K | – | 5.95e-08 ± 1.2e-09

CCCC(C)(C)C [2,2-dimethylpentane]
Settings | thermal conductivity [W/m/K] | thermal diffusivity [m2/s]
256.16 K | 0.1094 ± 0.00076 | –
256.52 K | 0.1091 ± 0.00076 | –
256.84 K | 0.109 ± 0.00076 | –
257.01 K | – | 7.66e-08 ± 1.4e-09
257.9 K | – | 7.58e-08 ± 1.4e-09
258.7 K | – | 7.56e-08 ± 1.4e-09
275.45 K | 0.1041 ± 0.00073 | –
275.83 K | 0.1039 ± 0.00073 | –
276.13 K | 0.1037 ± 0.00073 | –
276.31 K | – | 7.15e-08 ± 1.4e-09
277.21 K | – | 7.06e-08 ± 1.3e-09
277.95 K | – | 7.03e-08 ± 1.3e-09
296.32 K | 0.09819 ± 0.00069 | –
296.69 K | 0.09803 ± 0.00069 | –
297.02 K | 0.09794 ± 0.00069 | –
297.15 K | – | 6.57e-08 ± 1.2e-09
298.03 K | – | 6.53e-08 ± 1.2e-09
298.82 K | – | 6.49e-08 ± 1.2e-09
317.22 K | 0.09288 ± 0.00066 | –
317.63 K | 0.09264 ± 0.00066 | –
317.95 K | 0.09251 ± 0.00066 | –
318.05 K | – | 6.1e-08 ± 1.1e-09
318.98 K | – | 6.05e-08 ± 1.1e-09
319.72 K | – | 6.03e-08 ± 1.1e-09
336.91 K | 0.08793 ± 0.00063 | –
337.31 K | 0.08776 ± 0.00063 | –
337.64 K | 0.0876 ± 0.00063 | –
337.72 K | – | 5.67e-08 ± 1.1e-09
338.63 K | – | 5.61e-08 ± 1.1e-09
339.39 K | – | 5.59e-08 ± 1.1e-09

CC(C)C(C)C(C)C [2,3,4-trimethylpentane]
Settings | thermal conductivity [W/m/K] | thermal diffusivity [m2/s]
259.06 K | 0.1127 ± 0.00078 | –
259.29 K | 0.1126 ± 0.00078 | –
259.54 K | 0.1125 ± 0.00078 | –
259.87 K | – | 7.32e-08 ± 1.4e-09
260.45 K | – | 7.32e-08 ± 1.4e-09
261.06 K | – | 7.31e-08 ± 1.4e-09
277.95 K | 0.1083 ± 0.00076 | –
278.19 K | 0.1082 ± 0.00075 | –
278.44 K | 0.108 ± 0.00075 | –
278.74 K | – | 6.91e-08 ± 1.3e-09
279.35 K | – | 6.9e-08 ± 1.3e-09
279.93 K | – | 6.87e-08 ± 1.3e-09
297.33 K | 0.1036 ± 0.00073 | –
297.58 K | 0.1035 ± 0.00072 | –
297.84 K | 0.1033 ± 0.00072 | –
298.16 K | – | 6.57e-08 ± 1.2e-09
298.78 K | – | 6.56e-08 ± 1.2e-09
299.4 K | – | 6.54e-08 ± 1.2e-09
315.53 K | 0.09948 ± 0.0007 | –
315.77 K | 0.09926 ± 0.0007 | –
316.03 K | 0.09916 ± 0.0007 | –
316.35 K | – | 6.19e-08 ± 1.2e-09
316.91 K | – | 6.12e-08 ± 1.2e-09
317.54 K | – | 6.12e-08 ± 1.2e-09
331.87 K | 0.0958 ± 0.00068 | –
332.13 K | 0.09569 ± 0.00068 | –
332.39 K | 0.09551 ± 0.00068 | –
332.69 K | – | 5.9e-08 ± 1.1e-09
333.32 K | – | 5.89e-08 ± 1.1e-09
333.91 K | – | 5.84e-08 ± 1.1e-09

CC(C)C(C)C [2,3-dimethylbutane]
Settings | thermal conductivity [W/m/K] | thermal diffusivity [m2/s]
256.81 K | 0.1128 ± 0.00092 | –
257.19 K | 0.1127 ± 0.00092 | –
257.69 K | 0.1125 ± 0.00092 | –
258.09 K | – | 7.87e-08 ± 1.5e-09
258.98 K | – | 7.85e-08 ± 1.5e-09
260.13 K | – | 7.79e-08 ± 1.5e-09
277.98 K | 0.1061 ± 0.00087 | –
278.38 K | 0.1059 ± 0.00087 | –
278.91 K | 0.1057 ± 0.00087 | –
279.29 K | – | 7.3e-08 ± 1.4e-09
280.19 K | – | 7.27e-08 ± 1.4e-09
281.39 K | – | 7.23e-08 ± 1.4e-09
297.63 K | 0.1 ± 0.00083 | –
298.06 K | 0.0999 ± 0.00082 | –
298.6 K | 0.09972 ± 0.00082 | –
298.95 K | – | 6.8e-08 ± 1.3e-09
299.9 K | – | 6.77e-08 ± 1.3e-09
301.09 K | – | 6.74e-08 ± 1.3e-09
318.11 K | 0.09429 ± 0.00078 | –
318.45 K | 0.09416 ± 0.00078 | –
319.06 K | 0.09398 ± 0.00078 | –
319.63 K | – | 6.39e-08 ± 1.2e-09
320.36 K | – | 6.35e-08 ± 1.2e-09
321.67 K | – | 6.31e-08 ± 1.2e-09
336.29 K | 0.08957 ± 0.00075 | –
336.65 K | 0.08944 ± 0.00075 | –
337.3 K | 0.08925 ± 0.00074 | –
337.85 K | – | 6.04e-08 ± 1.2e-09
338.62 K | – | 6.01e-08 ± 1.2e-09
339.96 K | – | 5.97e-08 ± 1.2e-09
